Among the data in US9346777B2, “Antiprotozoal compounds” (MediSynergics, LLC, priority 2012, dated 2016) are IC50 values, retold here.

pIC50: −log10 of the molar value.

The subject of this assay is T. brucei brucei. Kind of assay: T. brucei brucei growth inhibition assay (bloodstream forms, CellTiter-Glo ATP-bioluminescence). Format: cell-based. The settings on record: Trypanosoma brucei; bloodstream forms of T. brucei brucei clone 427-221a; 40 hours at 37° C.; final DMSO 0.5%; 95% confidence intervals in parentheses. The protocol: The growth inhibition assay for T. brucei brucei was conducted as described previously by Z. B. Mackey et al (Kenny K. H. Ang, Joseline Ratnam, Jiri Gut, Jennifer Legac, Elizabeth Hansell, Zachary B. Mackey, Katarzyna M. Skrzypczynska, Anjan Debnath, Juan C. Engel, Philip J. Rosenthal, James H. McKerrow, Michelle R. Arkin, Adam R. Renslo (2011) “Mining a Cathepsin Inhibitor Library for New Antiparasitic Drug Leads”, PLoS Neglected Tropical Diseases, 5(5):e1023). Bloodstream forms of the monomorphic T. brucei brucei clone 427-221a were grown in complete HMI-9 medium containing 10% FBS, 10% Serum Plus medium (Sigma Inc., St. Louis, Mo., USA), 50 U/mL penicillin and […] (Invitrogen) at 37° C. under a humidified atmosphere and 5% CO2. Inhibitor stocks were prepared in 100% DMSO and screened at […] for percent inhibition values or serially diluted from […] in 10% DMSO for IC50 determinations. […] of diluted parasites ([…]) in sterile Greiner 96-well flat white opaque culture plates such that the final DMSO concentration was 0.5%. The 0% inhibition control wells contained 0.5% DMSO while 100% inhibition control wells contained […] thimerosal (Sigma). After compound addition, plates were incubated for 40 hours at 37° C. At the end of the incubation period, […] of CellTiter-Glo™ reagent (Promega Inc., Madison, Wis., USA) was added to each well and plates were placed on an orbital shaker at room temperature for 2 min to induce lysis. After an additional 10 min of incubation without shaking to stabilize the signal, the ATP-bioluminescence of each well was determined using an Analyst HT plate reader (Molecular Devices, Sunnyvale, Calif., USA). Raw values were converted to log 10 and percentage inhibition calculated relative to the controls. IC50 curve fittings were performed with Prism 4 software as above. Pentamidine was used as a comparator in the assay.
In the case of `CN(C)CCCC1(c2ccc(F)cc2)OCc2cc(-c3ncc[nH]3)ccc21` (centres unmarked) [Example 7], the pIC50 is 5.85. Next, `CN(C)CCCC1(c2ccc(F)cc2)OCc2cc(C(=N)N3CCCC3)ccc21` (centres unmarked) [Example 6, 1-[1-[3-(dimethylamino)propyl]-1-(4-fluorophenyl)-1,3-dihydro-2-benzofuran-5-yl]-1-(pyrrolidin-1-yl)methan-imine]: 4.62. In the case of `CN(C)CCCC1(c2ccc(F)cc2)OCc2cc(C(=N)N3CCOCC3)ccc21` (centres unmarked) [Example 5, 1-[1-[3-(dimethylamino)propyl]-1-(4-fluorophenyl)-1,3-dihydro-2-benzofuran-5-yl]-1-(morpholin-4-yl)methan-imine], the pIC50 is 4.43. Under `CN(C)CCCC1(c2ccc(F)cc2)OCc2cc(C(=N)NCc3ccccc3)ccc21` (centres unmarked) [Example 4, N-benzyl-1-[3-(dimethylamino)propyl]-1-(4-fluorophenyl)-1,3-dihydro-2-benzofuran-5-carboximidamide] stands 5.06; under `CN(C)CCCC1(c2ccc(F)cc2)OCc2cc(C(=N)N)ccc21` (centres unmarked) [Example 1, 1-[3-(dimethylamino)propyl]-1-(4-fluorophenyl)-1,3-dihydro-2-benzofuran-5-carboximidamide], 4.49.

As usually defined, the pIC50 is the negative decadic logarithm of the IC50, by convention in mol/L.
